These results are taken from article PMC6610665, “On the potential of in vitro organ-chip models to define temporal pharmacokinetic-pharmacodynamic relationships” (Scientific Reports, 2019).

The structures appear in SMILES notation. Read-outs that look alike come from different tables or passages of the source.

Series [1] is described as follows: Heart only and heart:liver chip PKPD model (Phoenix NLME 7.0). On the procedure: Heart, liver, media, and PDMS compartments and their corresponding parameters can be seen outlined in Fig. 4a.
A fifth compartment, FPD, was added to the Phoenix model to represent a PD profile linked to the defined PK model.
Using the experimental data collected (Fig. 3), parameters (except for Kint) were simultaneously fit across heart only and heart-liver systems. […] In the heart only case, the liver compartment was eliminated resulting in relevant parameters being equal to 0. Volumes of each compartment was defined by system parameters described above. The liver volume was initialized based on the system estimates but allowed to vary to account for any differences between assumed and actual cell numbers or sizes. […] Published Guinea pig[23], dog[24] and human, PK profiles were used as inputs into the established model in order to predict cardiac bioaccumulation over time, and therefore predict change in predicted FPD. While Guinea pig and dog temporal PKPD data is available in the literature, matching human data is not. […] The reported standard deviation values in PK profile were used to capture the associated error in predicted FPD values.

A further series deals with hiPS-CMs. As to the kind of experiment: Heart only MPS model, field potential duration (FPD) by MEA. To be noted: 5 µM terfenadine. Type of series: cell-based, human.
The conditions of series [2]: heart only model, 5 µM terfenadine.
Procedure: (§1) All drugs were separated using gradient elution methodology on a C18 phase (Agilent Zorbax Eclipse Plus, 4.6 mm, 100 mm length, 3 µm particle diameter) with binary mobile phase. Samples (50 µL) were diluted with acetonitrile and centrifuged to precipitate proteins after addition of the internal standard. The MS was set to positive ion mode and multiple reactive monitoring with nitrogen used for collision induced dissociation.
On the set-up of series [3]: method as in PMID 18587422, PMID 16581270. The following applies: dog; assumed for FPD simulation; cited from earlier work.
On the set-up of series [4]: method as in PMID 18587422, PMID 16581270. To be noted: human; assumed for FPD simulation; cited from earlier work.
The conditions of series [5]: heart:liver model, 5 µM terfenadine, mean ± SD.
Procedure: as §1
On the set-up of series [6]: method as in PMID 18587422, PMID 16581270. The following applies: Guinea pig; assumed for FPD simulation; cited from earlier work.
Setting [7] is: fit across heart only and heart:liver systems.

Procedure for hiPS-CMs: The medium recirculates between 2 reservoirs through a microfluidic network formed by the PDMS gaskets, with flow driven by a rocking platform producing a sinusoidal rocking profile with amplitude of ±1° and period of 60 seconds. The medium flows over the cell-containing areas of the liver coverslips and cardiac cantilever and MEA chips within the microfluidic channel. The system contained a total of 2 mL of medium throughout the flow channel and reservoirs. Compound dosing was applied at the reservoir closest to the liver chamber, such that the compound would first pass over and interact with the liver before being recirculated throughout the system.
hiPS-CMs (purchased from Cellular Dynamics) were thawed and seeded directly onto the surfaces at 50,000 cells per MEA and 500,000 cells per cantilever[6]. Primary human hepatocytes were purchased from the Cell Resources Core (Massachusetts General Hospital, Boston, MA, USA). Once thawed, 150,000 hepatocytes were cultured in the hepatic chamber which was coated with rat tail collagen type I (60 ug/mL) as previously described[6]. […]
FPD, spontaneous beat frequency and CV were extracted using Clampfit (Axon Instruments). The FPD was calculated by measuring the time from the initiation of the Q-wave until the apex of t-wave. […]

Turning to `CC(C)(C(=O)O)c1ccc(C(O)CCCN2CCC(C(O)(c3ccccc3)c3ccccc3)CC2)cc1` (centres unmarked) [fexofenadine], the “tvKint (delay of fexofenadine release into the system), estimate” value in series [1] (fit to fexofenadine concentration data, units printed n/a) is on record as 0.00062.
Regarding `CC(C)(C)c1ccc(C(O)CCCN2CCC(C(O)(c3ccccc3)c3ccccc3)CC2)cc1` (centres unmarked) [terfenadine], the “increase in FPD” value in the series with hiPS-CMs (12-hour timepoint) stood at 4.8 fold. Moreover, the “increase in FPD (peak measurable change)” value in the series on hiPS-CMs (4 hours) is 8 fold. For the same compound, in series [1] (setting [7]), the “KC1 (flow medium to heart), estimate” value is 0.0019 min⁻¹; the “KP2 (first order flow PDMS to medium), estimate” value is 0.00052 min⁻¹; the “Kfc (metabolism of terfenadine to fexofenadine in heart compartment), estimate” value was 0.0009 min⁻¹. In addition, in series [1] (heart:liver system), the “KL2 (flow liver to medium), estimate” value is 0.04988 min⁻¹ and the “Kfl (metabolism of terfenadine to fexofenadine in liver compartment), estimate” value was 0.0162 min⁻¹. Besides, the “terfenadine concentration in media” value in series [2] (12-hour timepoint) turned out to be 0.099 µM. Moreover, the “terfenadine concentration in media (peak)” value in series [2] (0.5 hours, mean ± SD) is on record as 5.88 µM. Moreover, the “terfenadine concentration in cardiomyocyte lysates (peak)” value in series [2] (4 hours, mean ± SD) came out at 2.65 µM. Further, the “percent free protein in plasma” value in series [3] is on record as 2%. Also, the “percent free protein in plasma” value in series [4] was 3%. Further, the “terfenadine concentration in media (peak)” value in series [5] (0.5 hours) was determined as 0.53 µM. Besides, in series [5] (peak between 0.5 and 1 hours), the “terfenadine concentration in heart chamber lysate (peak)” value is recorded as 1.08 µM and the “terfenadine concentration in liver chamber lysate (peak)” value worked out at 12.04 µM. For the same compound, the “percent free protein in plasma” value in series [6] was 3%.
